Measured values reported in PubChem BioAssay AID1963972 (Molecular Pharmacology Branch, DTP, NCI, 2024).

Tested on: 945468-187-T-J2-PDC spheroids viability
Experiment: Anticancer human tumor 945468-187-T-J2-PDC patient-derived rectal carcinoma cell line growth inhibition [PI3K]
Conditions: spheroids with HUVEC and MSC; for IC50: curve of first compound; for viability, T/C: stronger effect = lower value
Description: Combinatorial screen of targeted agents with the PI3K inhibitors inavolisib, alpelisib, duvelisib, and copanlisib in multi-cell type tumor spheroids
A high-throughput screen of multi-cell type tumor spheroids was designed to identify active combinations of targeted small molecules and PI3K pathway inhibitors. Complex spheroids include a stromal component modeled by human endothelial cells (HUVEC) and fibroblasts modeled by human mesenchymal stem cells (MSCs). The concentration ranges selected for each drug and investigational agent were based upon clinically achievable concentrations if the clinical Cmax of the agent was known.
Compounds. The drugs and investigational agents: inavolisib (NSC800729), alpelisib (NSC765974), duvelisib (NSC772469), copanlisib (NSC816437), ipatasertib (NSC767898), afuresertib (NSC778305), talazoparib (NSC767125), sapanisertib (NSC764658), selumetinib (NSC741078), tovorafenib (DAY101, NSC766906), vemurafenib (NSC761431), ravoxertinib (NSC781343), sotorasib (NSC818433), MRTX1133 (NSC 836407), abemaciclib (NSC 768073), palbociclib (NSC758247), venetoclax (NSC 766270), SY5609 (NSC837396), enzalutamide (NSC755605), and darolutamide (NSC825331), were obtained from the National Cancer Institute (NCI) Developmental Therapeutics Program Chemical Repository. The FDA-approved anticancer drug set is available from the NCI Developmental Therapeutics Program. […] The stock solutions were prepared in dimethyl sulfoxide (DMSO, Sigma-Aldrich, St. Louis, MO, cat. D2650) at 800-fold the tested concentration and stored at -70 degrees C prior to their use. All drugs and investigational agents were tested over a range starting from a high concentration at or near the clinical Cmax and decreasing in half-log increments. If the clinical Cmax for an agent had not been determined, the highest concentration tested was 10 microM.
Cell Culture. All cells were maintained in an incubator at 37 degrees C and 5% CO2 with 95% humidity. The PDC lines were cultured according to standard operating procedures established by the NCI PDMR (https://pdmr.cancer.gov/sops/default.htm). All PDCs were thawed and cultured in Matrigel-coated flasks prepared with a working solution of 1X Ham's F-12 nutrient mix, without supplementation (Invitrogen, Waltham, MA, cat. 11765054), 100 U/mL penicillin-streptomycin (Invitrogen, cat. 15140122), and 2.5% Matrigel (Corning Inc., Corning, NY, cat. 354248) for the first three passages. The 354836-022-R-J1-PDC, 475296-252-R-J1-PDC, and 997726-040-R-J2-PDC lines were cultured in 6A media, which includes advanced DMEM/F-12 (Thermo Fisher Scientific, cat. 12634028), 10 mM HEPES (Thermo Fisher Scientific, cat. 15630080), 1X GlutaMAX supplement (Thermo Fisher Scientific, cat. 35050061), 0.1 mg/mL primocin (InvivoGen, San Diego, CA, cat. ant-pm-2), 10% defined fetal bovine serum, heat inactivated (HyClone Laboratories Inc., Logan, UT, cat. SH30070.03HI), 50% L-WRN conditioned media (ATCC, cat. CRL-3276), 1.25 mM N-Acetyl-L-cysteine (Sigma-Aldrich, cat. A9165), 10 mM nicotinamide (Sigma-Aldrich, cat. N0636), 1X B-27 supplement (Thermo Fisher Scientific, cat. 17504044), 1X N-2 supplement (Thermo Fisher Scientific, cat. 17502048), and 10 microM Y-27632 dihydrochloride (Tocris Bioscience, Bristol, United Kingdom, cat. 1254). The 624824-186-R-J2-PDC line was cultured in 6C/Colon 1B media, which includes all 6A media components plus 50 ng/mL human EGF recombinant protein (Thermo Fisher Scientific, cat. PHG0311). […]
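Further: spheroids exposed to compounds for seven days before reading.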

`CC(C)n1nc(-c2ccc3oc(N)nc3c2)c2c(N)ncnc21` + CC(Nc1ccc2c(c1)OCCn1cc(N3C(=O)OCC3C(F)F)nc1-2)C(N)=O showed an IC50 (second compound 0.00316 µM) of over 100 nM, an IC50 (second compound 0.01 µM) of over 100 nM and an IC50 (second compound 0.0316 µM) of over 100 nM. For the same molecule, the IC50 (second compound 0.1 µM) was over 100 nM, the IC50 (second compound 0.316 µM) was 75.4 nM and the IC50 (second compound 1 µM) was 26.7 nM. It also gave a viability, T/C (second compound 0.00316 µM, first compound 0.000316 µM) of 141%, a viability, T/C (second compound 0.00316 µM, first compound 0.001 µM) of 114% and a viability, T/C (second compound 0.00316 µM, first compound 0.00316 µM) of 115%. The viability, T/C (second compound 0.00316 µM, first compound 0.01 µM) was 89.4%, the viability, T/C (second compound 0.00316 µM, first compound 0.0316 µM) was 107% and the viability, T/C (second compound 0.00316 µM, first compound 0.1 µM) was 83.7%. It also gave a viability, T/C (second compound 0.01 µM, first compound 0.000316 µM) of 168%, a viability, T/C (second compound 0.01 µM, first compound 0.001 µM) of 101% and a viability, T/C (second compound 0.01 µM, first compound 0.00316 µM) of 108%. The viability, T/C (second compound 0.01 µM, first compound 0.01 µM) was 91%, the viability, T/C (second compound 0.01 µM, first compound 0.0316 µM) was 88.8% and the viability, T/C (second compound 0.01 µM, first compound 0.1 µM) was 71%. For the same molecule, the viability, T/C (second compound 0.0316 µM, first compound 0.000316 µM) was 105%, the viability, T/C (second compound 0.0316 µM, first compound 0.001 µM) was 85.2% and the viability, T/C (second compound 0.0316 µM, first compound 0.00316 µM) was 109%. For the same molecule, the viability, T/C (second compound 0.0316 µM, first compound 0.01 µM) was 106%, the viability, T/C (second compound 0.0316 µM, first compound 0.0316 µM) was 95.7% and the viability, T/C (second compound 0.0316 µM, first compound 0.1 µM) was 73.4%. It also gave a viability, T/C (second compound 0.1 µM, first compound 0.000316 µM) of 81%, a viability, T/C (second compound 0.1 µM, first compound 0.001 µM) of 112% and a viability, T/C (second compound 0.1 µM, first compound 0.00316 µM) of 108%. The viability, T/C (second compound 0.1 µM, first compound 0.01 µM) was 91.8%, the viability, T/C (second compound 0.1 µM, first compound 0.0316 µM) was 101% and the viability, T/C (second compound 0.1 µM, first compound 0.1 µM) was 61.4%. The viability, T/C (second compound 0.316 µM, first compound 0.000316 µM) was 84.6%, the viability, T/C (second compound 0.316 µM, first compound 0.001 µM) was 89.7% and the viability, T/C (second compound 0.316 µM, first compound 0.00316 µM) was 82.2%. For the same molecule, the viability, T/C (second compound 0.316 µM, first compound 0.01 µM) was 81.5%, the viability, T/C (second compound 0.316 µM, first compound 0.0316 µM) was 75.5% and the viability, T/C (second compound 0.316 µM, first compound 0.1 µM) was 41.8%. The viability, T/C (second compound 1 µM, first compound 0.000316 µM) was 87.4%, the viability, T/C (second compound 1 µM, first compound 0.001 µM) was 103% and the viability, T/C (second compound 1 µM, first compound 0.00316 µM) was 75.5%. It also gave a viability, T/C (second compound 1 µM, first compound 0.01 µM) of 61.1%, a viability, T/C (second compound 1 µM, first compound 0.0316 µM) of 52.6% and a viability, T/C (second compound 1 µM, first compound 0.1 µM) of 29.4%.
